Assay results from patent US20240174671A1, “New 2,3-Dihydro-1H-pyrrolo[3,2-b]pyridine Derivatives as Sigma Ligands” (ACONDICIONAMIENTO TARRASENSE, priority 2021, published 2024).
Where two headings read alike, the source gives them in different places.

Columns and labels:
[1] = biological target: T1, human σ1 receptor (Homo sapiens, UniProt Q99720); experiment: Human σ1 receptor radioligand assay ([3H](+)-pentazocine); type: binding
T1 construct: expressed in transfected cells; host or cells: HEK-293
Outline: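 Binding used [3H](+)-pentazocine, 120 min at 37° C, with non-specific binding defined by 10 μM haloperidol. Bound radioligand was collected by filtration, washed with ice-cold 10 mM Tris-HCl pH 7.4 and counted by scintillation.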

[2] = biological target: T2, human σ2/TMEM97 receptor (Homo sapiens, UniProt Q5BJF2); experiment: Binding assay to human σ2/TMEM97 receptor ([3H]-DTG); conditions: transfected HEK-293 membranes, 10 nM [3H]-DTG, 25° C., 120 minutes; read-out: Binding σ-[…] (binding to σ2-receptor expressed as Ki)
T2 construct: expressed in transfected cells; host or cells: HEK-293
Outline: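 Membranes from transfected HEK-293 cells incubated with 10 nM [3H]-DTG in 50 mM Tris-HCl pH 8.0, 120 min at 25 °C; non-specific binding defined with 10 μM haloperidol. Bound radioactivity counted after filtration; compounds tested as % inhibition at 1 or 10 μM or at five concentrations for Ki.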

[3] = transfected HEK-293 membranes, 5 nM [3H](+)-pentazocine, 37° C., 120 minutes, read-out: Binding σ-[…] (binding to σ1-receptor expressed as Ki)

T2 sequence (Q5BJF2 whole entry): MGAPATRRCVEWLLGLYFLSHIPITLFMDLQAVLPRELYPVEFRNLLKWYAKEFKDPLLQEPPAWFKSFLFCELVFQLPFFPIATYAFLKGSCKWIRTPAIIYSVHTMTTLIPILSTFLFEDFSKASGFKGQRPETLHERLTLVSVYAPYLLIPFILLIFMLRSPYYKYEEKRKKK
T1 sequence (Q99720 whole entry): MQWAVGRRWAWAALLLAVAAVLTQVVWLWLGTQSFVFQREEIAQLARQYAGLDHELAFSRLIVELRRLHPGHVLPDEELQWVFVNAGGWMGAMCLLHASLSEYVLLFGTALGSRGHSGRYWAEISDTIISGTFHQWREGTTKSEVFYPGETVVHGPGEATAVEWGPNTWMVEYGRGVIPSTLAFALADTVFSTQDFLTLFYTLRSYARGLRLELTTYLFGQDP

| Structure (SMILES) | Ki [1, 3] [nM] | Ki [2] [nM] | Ki [1] [nM] |
| --- | --- | --- | --- |
| CN(CCc1ccccc1)C1CCN(C(=O)N2CC(C)(C)c3ncccc32)CC1 [Example 52, (3,3-dimethyl-2,3-dihydro-1H-pyrrolo[3,2-b]pyridin-1-yl)(4-(methyl(phenethyl)amino)piperidin-1-yl)methanone] | 100 to 500 | < 100 | – |
| CC(C)(C)CCN1CCC(CNC(=O)N2CC(C)(C)c3ncccc32)CC1 [Example 109, N-((1-(3,3-dimethylbutyl)piperidin-4-yl)methyl)-3,3-dimethyl-2,3-dihydro-1H-pyrrolo[3,2-b]pyridine-1-carboxamide] | 100 to 500 | < 100 | – |
| Cc1ccc2c(n1)C(C)(C)CN2C(=O)NC1CCN(CCc2ccccc2)CC1 [Example 27, 3,3,5-trimethyl-N-(1-phenethylpiperidin-4-yl)-2,3-dihydro-1H-pyrrolo[3,2-b]pyridine-1-carboxamide] | – | < 100 | 100 to 500 |
| Cc1ccc2c(n1)C(C)(C)CN2C(=O)N1CCN(Cc2ccccc2)CC1 [Example 10, (4-benzylpiperazin-1-yl)(3,3,5-trimethyl-2,3-dihydro-1H-pyrrolo[3,2-b]pyridin-1-yl)methanone] | 100 to 500 | > 1000 | – |
| Cc1ccc2c(n1)C(C)(C)CN2C(=O)NCC(c1ccccc1)N1CCCC1 (stereo not shown) [Example 7, 3,3,5-trimethyl-N-(2-phenyl-2-(pyrrolidin-1-yl)ethyl)-2,3-dihydro-1H-pyrrolo[3,2-b]pyridine-1-carboxamide] | 100 to 500 | > 1000 | – |
| CC1(C)CN(C(=O)NCC2CCN(CCc3ccccc3)CC2)c2cccnc21 [Example 70, 3,3-dimethyl-N-((1-phenethylpiperidin-4-yl)methyl)-2,3-dihydro-1H-pyrrolo[3,2-b]pyridine-1-carboxamide] | > 1000 | 100 to 500 | – |
| CN[C@@H](CNC(=O)N1CC(C)(C)c2nc(C)ccc21)c1ccccc1 [Example 112, (R)-3,3,5-trimethyl-N-(2-(methylamino)-2-phenylethyl)-2,3-dihydro-1H-pyrrolo[3,2-b]pyridine-1-carboxamide] | 100 to 500 | > 1000 | – |
| Cc1ccc2c(n1)C(C)(C)CN2C(=O)[C@H]1CC[C@H](N(C)Cc2ccccc2F)CC1 [Example 183, ((1r,4r)-4-((2-fluorobenzyl)(methyl)amino)cyclohexyl)(3,3,5-trimethyl-2,3-dihydro-1H-pyrrolo[3,2-b]pyridin-1-yl)methanone] | – | < 100 | < 100 |
| Cc1ccc2c(n1)C(C)(C)CN2C(=O)N1CCC(NCc2ccccc2)CC1 [Example 115, (4-(benzylamino)piperidin-1-yl)(3,3,5-trimethyl-2,3-dihydro-1H-pyrrolo[3,2-b]pyridin-1-yl)methanone] | > 1000 | 100 to 500 | – |
| Cc1ccc2c(n1)C(C)(C)CN2C(=O)N1CCC2(CCN(Cc3cccc(C#N)c3)CC2)C1 [Example 92, 3-((2-(3,3,5-trimethyl-2,3-dihydro-1H-pyrrolo[3,2-b]pyridine-1-carbonyl)-2,8-diazaspiro[4.5]decan-8-yl)methyl)benzonitrile] | > 1000 | < 100 | – |
| Cc1ccc2c(n1)C(C)(C)CN2C(=O)N1CCC(N(C)Cc2cccc(C(=O)N(C)C)c2)CC1 [Example 63, N, N-dimethyl-3-((methyl(1-(3,3,5-trimethyl-2,3-dihydro-1H-pyrrolo[3,2-b]pyridine-1-carbonyl)piperidin-4-yl)amino)methyl)benzamide] | > 1000 | > 1000 | – |
| CC1(C)CN(C(=O)N2CCC3(CCN(Cc4ccc(C#N)cc4F)CC3)C2)c2cccnc21 [Example 157, 4-((2-(3,3-dimethyl-2,3-dihydro-1H-pyrrolo[3,2-b]pyridine-1-carbonyl)-2,8-diazaspiro[4.5]decan-8-yl)methyl)-3-fluorobenzonitrile] | 100 to 500 | < 100 | – |
| CC1(C)CN(C(=O)N2CCC3(CCN(Cc4ccccc4)CC3)C2)c2cccnc21 [Example 89, (8-benzyl-2,8-diazaspiro[4.5]decan-2-yl)(3,3-dimethyl-2,3-dihydro-1H-pyrrolo[3,2-b]pyridin-1-yl)methanone] | < 100 | < 100 | – |
| Cc1ccc2c(n1)C(C)(C)CN2C(=O)C1CN(Cc2ccc(F)cc2)C1 [Example 133, (1-(4-fluorobenzyl)azetidin-3-yl)(3,3,5-trimethyl-2,3-dihydro-1H-pyrrolo[3,2-b]pyridin-1-yl)methanone] | < 100 | > 1000 | – |
| Cc1ccc2c(n1)C(C)(C)CN2C(=O)NC[C@H](Cc1ccccc1)N(C)C [Example 12, (S)—N-(2-(dimethylamino)-3-phenylpropyl)-3,3,5-trimethyl-2,3-dihydro-1H-pyrrolo[3,2-b]pyridine-1-carboxamide] | – | > 1000 | < 100 |

Second part, led by results:

| Ki [1, 3] [nM] | Ki [2] [nM] | Structure (SMILES) | Ki [1] [nM] |
| --- | --- | --- | --- |
| < 100 | 500 to 1000 | Cc1ccc2c(n1)C(C)(C)CN2C(=O)C1CN(Cc2cccc(F)c2)C1 [Example 135, (1-(3-fluorobenzyl)azetidin-3-yl)(3,3,5-trimethyl-2,3-dihydro-1H-pyrrolo[3,2-b]pyridin-1-yl)methanone] | – |
| < 100 | < 100 | Cc1ccc2c(n1)C(C)(C)CN2C(=O)[C@H]1CC[C@H](N(C)Cc2ccc(C(F)(F)F)nc2)CC1 [Example 184, ((1r,4r)-4-(methyl((6-(trifluoromethyl)pyridin-3-yl)methyl)amino)cyclohexyl)(3,3,5-trimethyl-2,3-dihydro-1H-pyrrolo[3,2-b]pyridin-1-yl)methanone] | – |
| < 100 | < 100 | CC1(C)CN(C(=O)N2CCC3(CCN(Cc4ccc(F)cc4)CC3)C2)c2cccnc21 [Example 149, (3,3-dimethyl-2,3-dihydro-1H-pyrrolo[3,2-b]pyridin-1-yl)(8-(4-fluorobenzyl)-2,8-diazaspiro[4.5]decan-2-yl)methanone] | – |
| < 100 | < 100 | Cc1ccc2c(n1)C(C)(C)CN2C(=O)[C@H]1CC[C@@H](N(C)Cc2ccccc2)CC1 [Example 126, ((1s,4s)-4-(benzyl(methyl)amino)cyclohexyl)(3,3,5-trimethyl-2,3-dihydro-1H-pyrrolo[3,2-b]pyridin-1-yl)methanone] | – |
| < 100 | > 1000 | Cc1ccc2c(n1)C(C)(C)CN2C(=O)NC1CCN(Cc2cccc(F)c2)CC1 [Example 26, N-(1-(3-fluorobenzyl)piperidin-4-yl)-3,3,5-trimethyl-2,3-dihydro-1H-pyrrolo[3,2-b]pyridine-1-carboxamide] | – |
| < 100 | > 1000 | Cc1ccc2c(n1)C(C)(C)CN2C(=O)C1CN(Cc2ccccc2)C1 [Example 131, (1-benzylazetidin-3-yl)(3,3,5-trimethyl-2,3-dihydro-1H-pyrrolo[3,2-b]pyridin-1-yl)methanone] | – |
| < 100 | < 100 | Cc1ccc2c(n1)C(C)(C)CN2C(=O)[C@H]1CC[C@H](N(C)Cc2ccc(F)cc2F)CC1 [Example 172, ((1r,4r)-4-((2,4-difluorobenzyl)(methyl)amino)cyclohexyl)(3,3,5-trimethyl-2,3-dihydro-1H-pyrrolo[3,2-b]pyridin-1-yl)methanone] | – |
| < 100 | < 100 | Cc1ccc2c(n1)C(C)(C)CN2C(=O)[C@H]1CC[C@H](N(C)Cc2ccc(C#N)c(F)c2)CC1 [Example 180, 2-fluoro-4-((methyl((1r,4r)-4-(3,3,5-trimethyl-2,3-dihydro-1H-pyrrolo[3,2-b]pyridine-1-carbonyl)cyclohexyl)amino)methyl)benzonitrile] | – |
